The values below come from patent US8580842B2, “Heteroaryl-substituted 1,3-dihydroindol-2-one derivatives and medicaments containing them” (Abbott GmbH & Co. KG, priority 2003, dated 2013).

SMILES strings stand for the structures. Where a name gives a salt, the structure may show the parent alone. Bounds are passed on as bounds.

This experiment deals with T1, human V1b receptors (Homo sapiens, UniProt P47901).
T1 construct: expressed in transfected cells; host or cells: CHO-K1 (membrane preparation V1b-3H2)
T1 sequence (P47901 1-424): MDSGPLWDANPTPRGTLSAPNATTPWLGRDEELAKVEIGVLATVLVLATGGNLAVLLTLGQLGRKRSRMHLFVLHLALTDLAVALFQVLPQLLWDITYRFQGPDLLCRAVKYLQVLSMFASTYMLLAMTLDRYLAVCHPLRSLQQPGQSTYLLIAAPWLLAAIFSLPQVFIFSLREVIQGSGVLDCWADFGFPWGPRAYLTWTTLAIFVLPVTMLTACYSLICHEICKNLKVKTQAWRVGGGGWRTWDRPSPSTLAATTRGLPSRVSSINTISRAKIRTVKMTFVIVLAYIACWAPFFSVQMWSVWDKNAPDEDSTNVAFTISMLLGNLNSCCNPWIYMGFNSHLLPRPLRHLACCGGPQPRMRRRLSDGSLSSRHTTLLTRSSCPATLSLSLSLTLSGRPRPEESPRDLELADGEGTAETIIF
Nature of the experiment: Vasopressin V1b receptor binding assay. Particulars: membranes from CHO-K1 cells expressing human V1b receptors, displacement of 1.5 nM 3H-AVP; read-out: Binding affinity for the vasopressin V1b receptor. How it is done: Vasopressin V1b Receptor Binding Assay
The binding of the compounds of this invention to the vasopressin V1b receptor was determined with the following assay:
Compounds were dissolved in a concentration of 10^−2 M or 10^−3 M in DMSO. Further dilutions were performed with water.
The procedure for the binding assay was based on the method of Tahara et al. (Tahara A et al., Brit. J. Pharmacol. 125, 1463-1470 (1998)). Assays (0.250 ml) consisted of membranes (58 μg protein) from CHO-K1 cells permanently expressing human V1b receptors (preparation V1b-3H2, containing protease inhibitors, Roche complete Mini #1836170), 1.5 nM ^3H-AVP (8-Arg-vasopressin, NET 800) in incubation buffer (total binding) and different concentrations of test compound (displacement). Non-specific binding was defined with 10^−6 M AVP. Assays were performed in triplicate.
Incubation buffer: 50 mM Tris, 10 mM MgCl2, 0.1% BSA adjusted to pH 7.4 with HCl.
After incubation, 60 min at room temperature, bound and free radioligand was separated by filtration under vacuum through Whatman GF/B glass fibre mats using a Skatron cell harvester 7000.
Liquid scintillation counting was performed in beta-counters, Tricarb model 2000 or 2200CA (Packard). Dpm were calculated by a programme with standardisation using a standard quench series.
Evaluation of binding parameters was performed by non-linear regression analysis with SAS. The strategy of this program is similar to the program LIGAND described by Munson and Rodbard (Munson PJ and Rodbard D, Analytical Biochem 107, 220-239 (1980)).

Regarding `COc1ccccc1C1(N2C[C@H](O)C[C@H]2C(=O)N(C)C)C(=O)N(S(=O)(=O)c2cc(C)ccn2)c2ccc(Cl)cc21` (single isomer, unassigned) [Example 252], the Ki was < 50 nM.

Regarding `COc1ccccc1C1(N2C[C@H](O)C[C@H]2C(=O)N(C)C)C(=O)N(S(=O)(=O)c2cccc(C)n2)c2ccc(Cl)cc21` (single isomer, unassigned) [Example 253], the Ki was < 50 nM. With `COc1ccc(S(=O)(=O)N2C(=O)C(c3cccnc3OC)(N3CC[C@H]3C(=O)N(C)C)c3cc(Cl)ccc32)c(OC)c1` (single isomer, unassigned) [Example 255], the Ki lay in the range of 50 to 500 nM.

As to `COc1ccccc1C1(N2C[C@H](O)C[C@H]2C(=O)N(C)C)C(=O)N(S(=O)(=O)c2sccc2OC)c2ccc(Cl)cc21` (single isomer, unassigned) [Example 256], the Ki is < 50 nM.

For the compound `COc1ncccc1C1(N2C[C@H](O)C[C@H]2C(=O)N(C)C)C(=O)N(S(=O)(=O)c2cccs2)c2ccc(Cl)cc21` (single isomer, unassigned) [Example 270], the Ki is < 50 nM. Consider `COc1ncccc1C1(N2C[C@H](O)C[C@H]2C(=O)N(C)C)C(=O)N(S(=O)(=O)c2cccs2)c2ccc(C#N)cc21` (single isomer, unassigned) [Example 277], for which the Ki is 50 to 500 nM. `COc1ccc(C2(N3C[C@H](O)C[C@H]3C(=O)N(C)C)C(=O)N(S(=O)(=O)c3cccs3)c3ccc(Cl)cc32)c(OC)n1` (single isomer, unassigned) [Example 280]: the Ki is < 50 nM. To `COc1ncc(C2(N3C[C@H](O)C[C@H]3C(=O)N(C)C)C(=O)N(S(=O)(=O)c3cccs3)c3ccc(Cl)cc32)c(OC)n1` (single isomer, unassigned) [Example 281] belongs 50 to 500 nM. With `COc1ncc(C2(N3C[C@H](O)C[C@H]3C(=O)N(C)C)C(=O)N(S(=O)(=O)c3ccc(C)cn3)c3ccc(Cl)cc32)c(OC)n1` (single isomer, unassigned) [Example 282], the Ki was < 50 nM. Regarding `COc1ccsc1S(=O)(=O)N1C(=O)C(c2cccnc2OC)(N2C[C@H](O)C[C@H]2C(=O)N(C)C)c2cc(OC(F)(F)F)ccc21` (single isomer, unassigned) [Example 286], the Ki is 50 to 500 nM. Consider `COc1ncccc1C1(N2C[C@H](O)C[C@H]2C(=O)N(C)C)C(=O)N(S(=O)(=O)c2cccc3cccnc23)c2ccc(Cl)cc21` (single isomer, unassigned) [Example 288], for which the Ki was < 50 nM. In the case of `COc1ccccc1C1(N2C[C@H](O)C[C@H]2C(=O)N(C)C)C(=O)N(S(=O)(=O)c2cc(Br)c(Cl)s2)c2ccc(Cl)cc21` (stereo partly drawn) [Example 33, (2S,4R)-1-[1-(4-Bromo-5-chloro-thiophene-2-sulfonyl)-5-chloro-3-(2-methoxy-phenyl)-2-oxo-2,3-dihydro-1H-indol-3-yl]-4-hydroxy-pyrrolidine-2-carboxylic acid dimethylamide trifluoroacetate], the Ki fell in the range of 50 to 500 nM.

Regarding `COc1ccccc1C1(N2C[C@H](O)C[C@H]2C(=O)N(C)C)C(=O)N(S(=O)(=O)c2cnc(Cl)c(Br)c2)c2ccc(Cl)cc21` (stereo partly drawn) [Example 59, (2S,4R)-1-[5-Chloro-1-(5-bromo-6-chloropyridine-3-sulfonyl)-3-(2-methoxy-phenyl)-2-oxo-2,3-dihydro-1H-indol-3-yl]-4-hydroxy-pyrrolidine-2-carboxylic acid dimethylamide], the Ki is > 500 nM.

Take `COc1ccc(S(=O)(=O)N2C(=O)C(OC(=O)Nc3ccc(Cl)cc3)(c3sccc3C)c3cc(Cl)ccc32)c(OC)c1` (stereo not shown) [Example 63, (4-Chloro-phenyl)-carbamic acid 5-chloro-1-(2,4-dimethoxy-benzenesulfonyl)-3-(3-methyl-thiophen-2-yl)-2-oxo-2,3-dihydro-1H-indol-3-ylester]: the Ki is > 500 nM. As to `COc1ccccc1C1(OC(=O)N2CCCCC2)C(=O)N(S(=O)(=O)c2cccc3cccnc23)c2ccc(Cl)cc21` (stereo not shown) [Example 65, Piperidine-1-carboxylic acid 5-chloro-3-(2-methoxy-phenyl)-2-oxo-1-(quinoline-8-sulfonyl)-2,3-dihydro-1H-indol-3-yl ester], the Ki was in the range of 50 to 500 nM.

For the compound `COc1ccccc1C1(OC(=O)N2CCN(C3CCN(C)CC3)CC2)C(=O)N(S(=O)(=O)c2cccc3cccnc23)c2ccc(Cl)cc21` (stereo not shown) [Example 75, 4-(1-Methyl-piperidin-4-yl)-piperazine-1-carboxylic acid 5-chloro-3-(2-methoxy-phenyl)-2-oxo-1-(quinoline-8-sulfonyl)-2,3-dihydro-1H-indol-3-yl ester bismethanesulfonate], the Ki is < 50 nM. `COc1ncccc1C1(OC(=O)N2CCN(C3CCN(C)CC3)CC2)C(=O)N(S(=O)(=O)c2ccccc2)c2ccc(Cl)cc21` (stereo not shown) [Example 76, 4-(1-Methyl-piperidin-4-yl)-piperazine-1-carboxylic acid 1-benzenesulfonyl-5-chloro-3-(2-methoxy-pyridin-3-yl)-2-oxo-2,3-dihydro-1H-indol-3-yl ester]: the Ki was < 50 nM.

In the case of `COc1ccc(S(=O)(=O)N2C(=O)C(NC(=O)C3CCN(c4ccncc4)CC3)(c3cccnc3OC)c3cc(Cl)ccc32)c(OC)c1` (stereo not shown) [Example 82, 3,4,5,6-Tetrahydro-2H-[1,4′]bipyridinyl-4-carboxylic acid [5-chloro-1-(2,4-dimethoxy-benzenesulfonyl)-3-(2-methoxy-pyridin-3-yl)-2-oxo-2,3-dihydro-1H-indol-3-yl]-amide], the Ki is < 50 nM. As to `CCOc1ccccc1C1(NC(=O)N2CCN(C3CCN(C)CC3)CC2)C(=O)N(S(=O)(=O)c2cccc3cccnc23)c2ccc(OC)cc21` (stereo not shown) [Example 83, 4-(1-Methyl-piperidin-4-yl)-piperazine-1-carboxylic acid [3-(2-ethoxy-phenyl)-5-methoxy-2-oxo-1-(quinoline-8-sulfonyl)-2,3-dihydro-1H-indol-3-yl]-amide], the Ki was < 50 nM. On to `COc1ncccc1C1(OC(=O)N2CCC(N3CCN(C)CC3)CC2)C(=O)N(S(=O)(=O)c2ccccc2)c2ccc(Cl)cc21` (stereo not shown) [Example 103, 4-(4-Methyl-piperazin-1-yl)-piperidine-1-carboxylic acid 1-benzenesulfonyl-5-chloro-3-(2-methoxy-pyridin-3-yl)-2-oxo-2,3-dihydro-1H-indol-3-yl ester], for which the Ki was < 50 nM. The same measure for `COc1ccc(S(=O)(=O)N2C(=O)C(OC(=O)N3CCN(C4CCN(C)CC4)CC3)(c3ccccn3)c3cc(Cl)ccc32)c(OC)c1` (stereo not shown) [Example 104, 4-(1-Methyl-piperidin-4-yl)-piperazine-1-carboxylic acid 5-chloro-1-(2,4-dimethoxy-benzenesulfonyl)-2-oxo-3-pyridin-2-yl-2,3-dihydro-1H-indol-3-yl ester trishydrochloride]: < 50 nM; for `COc1ccc(S(=O)(=O)N2C(=O)C(OC(=O)N3CCN(C4CCN(C)CC4)CC3)(c3cccnc3OC)c3cc(Cl)ccc32)c(OC)c1` (stereo not shown) [Example 105, 4-(1-Methyl-piperidin-4-yl)-piperazine-1-carboxylic acid 5-chloro-1-(2,4-dimethoxy-benzenesulfonyl)-3-(2-methoxy-pyridin-3-yl)-2-oxo-2,3-dihydro-1H-indol-3-yl ester]: < 50 nM. As for `COc1ccc(S(=O)(=O)N2C(=O)C(OC(=O)N3CCC(N4CCN(C)CC4)CC3)(c3cccnc3OC)c3cc(C)ccc32)c(OC)c1` (stereo not shown) [Example 107, 4-(4-Methyl-piperazin-1-yl)-piperidine-1-carboxylic acid 1-(2,4-dimethoxy-benzenesulfonyl)-3-(2-methoxy-pyridin-3-yl)-5-methyl-2-oxo-2,3-dihydro-1H-indol-3-yl ester], the Ki was < 50 nM. The same measure for `COc1ncccc1C1(OC(=O)N2CCN(C3CCN(C)CC3)CC2)C(=O)N(S(=O)(=O)c2ccc(C#N)cc2)c2ccc(Cl)cc21` (stereo not shown) [Example 113, 4-(1-Methyl-piperidin-4-yl)-piperazine-1-carboxylic acid 5-chloro-1-(4-cyano-benzenesulfonyl)-3-(2-methoxy-pyridin-3-yl)-2-oxo-2,3-dihydro-1H-indol-3-yl ester diacetate]: < 50 nM; for `COc1ccc(S(=O)(=O)N2C(=O)C(OC(=O)N3CCN(C4CCN(C)CC4)CC3)(c3cccnc3OC)c3cc(Cl)ccc32)cc1` (stereo not shown) [Example 115, 4-(1-Methyl-piperidin-4-yl)-piperazine-1-carboxylic acid 5-chloro-1-(4-methoxy-benzenesulfonyl)-3-(2-methoxy-pyridin-3-yl)-2-oxo-2,3-dihydro-1H-indol-3-yl ester diacetate]: < 50 nM.
